Columns and labels:
[1] = test system: Microphthalmia Transcription Factor (MITF); assay: TRPM1-luciferase reporter screen for MITF antagonists in Skme15 melanoma cells; format: cell-based, human; details: screen, suppression of TRPM1-luciferase activity, Skme15 cells
Excerpt: In order to carry out a successful MITF antagonist screen, the inventors utilized a TRPM1-luciferase reporter. […] Therefore, the TRPM1-luciferase reporter stably integrated into melanoma cells is effective for the screening assay. The use of melanoma cells, while less perfectly relevant than primary human melanocytes, afforded the advantages of speed and reproducibility for the screen.
In order to engineer a screen which broadly suppress MITF activity either by suppression of MITF expression or by inhibition of MITF activity, the inventors utilized a luciferase reporter containing the promoter of a strong direct transcriptional target of MITF, i.e., TRPM1 gene, the inventors have identified the active ingredients having the ability of inhibiting the expression or activation of Microphthalmia Transcription Factor (MITF) for medical or esthetic benefit. The inventors have previously identified the TRPM1 gene (also called “Melastatin”) as a direct target of MITF, which contains numerous MITF binding sites, and which directly responds in potent fashion to MITF overexpression (Miller A J, Du J, Rowan S, Hershey C L, Widlund H R, Fisher D E: Transcriptional regulation of the melanoma prognostic marker melastatin (TRPM1) by MITF in melanocytes and melanoma, Cancer Res 2004, 64:509-516). TRPM1 expression also correlates closely to MITF expression within human melanoma cell lines, as well as in clinical pigmented lesions (nevi and melanomas).
The TRPM1 promoter was ligated to the luciferase gene and inserted into a retroviral vector as well as a lentiviral vector. The lentiviral vector was used to infect primary human melanocytes, which then was subjected to a primary screen using the Broad Chemical Genetics core screening facility, and its natural products/extracts libraries. As backup, the retroviral vector was used to stably integrate into the genome of melanoma cells, which can be used for the identical small molecule screen. Screen optimization was carried out using forskolin and MSH as positive control small molecules (which upregulate cAMP and MITF expression (D'Orazio J A, Nobuhisa T, Cui R, Arya M, Spry M, Wakamatsu K, Igras V, Kunisada T, Granter S R, Nishimura E K, Ito S, Fisher D E: Topical drug rescue strategy and skin protection based on the role of Mc1r in UV-induced tanning, Nature 2006, 443:340-344)). Small molecules which suppress MSH induced TRPM1-luciferase without altering cell numbers or viability, represent initial “hits” in this screen. Negative control includes a constitutive luciferase vector within the same cells (eg driven by a constitutive promoter such as thymidine kinase promoter), to control for nonspecific inhibitors of basal transcriptional machinery-something which would otherwise be assessed in detail during secondary/tertiary analyses of candidate hits.
The human melanoma cell line Skme15 was utilized due to the advantageous growth properties as well as the inventors' prior experience that Skme15 expresses a typical level of MITF protein. […] Therefore, an integrated TRPM1-luciferase reporter was generated, and the subsequent cells were cloned twice (serially) to assure purity of the reporter cell population. Cells were maintained in drug selection to assure maintenance of the luciferase reporter (when drug was omitted, eventual loss of the luciferase signal was observed). Following re-cloning, distinct isolates were selected for further use on the basis of clonogenic growth on 384 well plates, as required for the small molecule screen. A positive control for suppression of TRPM1-luciferase signal utilized: a lentivirus encoding shRNA against MITF. […] The day-to-day variability in plating efficiency was analyzed, and found very high reproducibility in the line which was selected for further use in the screen.
The screen was carried out with a library from the Broad Institute comprising a mixture of natural products, known bioactives, and additional compounds (a total of about 13,000 compounds). […]

Skme15 = assay: Toxicity with fluorescence viability probe (CellTiter-Fluo Cell Viability Assay); format: cell-based, human; details: composite of the variation between drug-treated and control divided by the standard error
Description: Although the shape of the dose-response can vary among hits, the inventors chose to include all candidates which produce dose-dependent effects. The fourth criterion which was determined is the IC50 (described formally as qAC50) which represents the half-maximal suppression dose. Most of the candidate hits resided in the high nanomolar to low micromolar range by this criterion (all of these validation data are listed in Table 1). The fifth criterion was maximal suppression (at any dose), which represented the magnitude of suppression which was attainable regardless of the dose required to achieve it. […] The sixth criterion to be determined is the Log P partition coefficient, which is a predictor of lipophilicity. For this, the inventors have used the method of Ghose and Crippen to calculate the predicted octanol-water partition coefficient (J. Comp. Chem. 9, 80(1988)). While this is only an estimate of potential skin penetration, the analysis was carried out because it helps in prioritizing likelihood of topical effectiveness, in theory. The seventh criterion was an analysis of toxicity utilizing a fluorescence viability probe (CellTiter-Fluo™ Cell Viability Assay (Promega)). Interpretation of this endpoint is complicated by the fact that it represents a composite of the variation between drug-treated and control divided by the standard error The results shown in Table 1 indicate 34 candidate molecules which satisfied all of the criteria outlined above. […] Most of their potencies ranged slightly below or above 1 uM. While the lipophilicity scores remain imperfect predictors of skin penetration capability. However, numbers of >3 can be more likely to penetrate.

SMILES	Z-Score [1]	Viability z-score (treated minus control, divided by standard error) (Skme15)
Cc1oc(-c2ccc3c(c2)OCCO3)cc1C(=O)NCC(=O)O [N-[5-(2,3-dihydro-1,4-benzodioxin-6-yl)-2-methyl-3-furoyl]glycine]	−10.0065	−0.0206
COc1cccc(C(=O)NC(c2ccc(Cl)cc2)c2c(O)ccc3ccccc23)c1 (stereo not drawn) [N-[(4-chlorophenyl)(2-hydroxy-1-naphthyl)methyl]-3-methoxybenzamide]	−11.9861	−0.1221
O=C(CCSc1nc(-c2ccccc2)cs1)Nc1ccccc1 [N-phenyl-3-[(4-phenyl-1,3-thiazol-2-yl)thio]propanamide]	−10.8255	−0.2442
O=C(O)COc1cccc(-c2nc3ccccc3s2)c1 [[3-(1,3-benzothiazol-2-yl)phenoxy]acetic acid]	−11.9101	−0.0206
N#CC(C#N)=C(Nc1ccccc1Cl)SCc1cccc(F)c1 [{[(2-chlorophenyl)amino][(3-fluorobenzyl)thio]methylene}malononitrile]	−10.3064	−1.5092
N#CC(C#N)=C(Nc1ccc(Br)cc1)SCc1ccc(F)cc1 [{[(4-bromophenyl)amino][(4-fluorobenzyl)thio]methylene}malononitrile]	−9.463	−1.5092
